From EPA's ToxValDB 9.5 (doi:10.2903/j.efsa.2009.298r)
≈ marks a conversion by molar mass, not a printed value.

Legend:
Allium cepa = conditions: not reported; seedling emergence
Apis mellifera = conditions: acute, mortality
Canidae = conditions: oral, Dog Other, organ weight
Daphnia magna = conditions: chronic/long-term; duration: 21 days; reproduction
Folsomia candida = conditions: chronic/long-term
Tagia sp. = conditions: mortality

CCCCC(C#N)(Cn1cncn1)c1ccc(Cl)cc1 (configuration not stated) [Myclobutanil]
LEL (Allium cepa): > 300 g/ha | NOEC (Anas platyrhynchos; reproductive): 31.6 mg/kg-day | LC50 (Anas platyrhynchos; short-term, oral, feed, mortality): > 1540 mg/kg-day | LD50 (Apis mellifera; duration: 72 hours, dermal): > 39.6 µg/piece | LD50 (Apis mellifera; oral, unspecified): > 33.9 µg/piece | NOAEL (Canidae; chronic, duration: 1 years): 3.09 mg/kg-day | NOAEL (Canidae; subchronic, duration: 90 days): 3.09 mg/kg-day | LC50 (Colinus virginianus; acute, oral, diet, mortality): > 567 mg/kg-day | LD50 (Colinus virginianus; acute, oral, mortality): 510 mg/kg-day | NOEC (Colinus virginianus; reproduction developmental): 24.2 mg/kg-day | NOEC (Daphnia magna): 1 mg/L | NOEC (Folsomia candida): 20.5 mg/kg | LC50 (Oncorhynchus mykiss; acute, duration: 96 hours, mortality): 2 mg/L (≈ 6.93 µM) | NOEC (Oncorhynchus mykiss; chronic/long-term, duration: 21 days, growth): 0.2 mg/L | LD50 (Rattus norvegicus; acute, oral, M, mortality): 1600 mg/kg-day | NOAEL (Rattus norvegicus; chronic, duration: 2 years, histopathology: nonneoplastic): 2.5 mg/kg-day | NOAEL (Rattus norvegicus; developmental, development): 31 mg/kg-day | NOEL (Rattus norvegicus; reproduction developmental, reproduction): 16 mg/kg-day | LC50 (Tagia sp.; acute): 250 mg/kg | NOEC (Tagia sp.; chronic/long-term, duration: 28 days): 10.3 mg/kg | LEL (Typhlodromus pyri; acute, duration: 14 days, mortality): 36 g/ha | LEL (Typhlodromus pyri; not reported, reproduction): 36 g/ha
